According to patent US8501783B2, “Conformationally restricted urea inhibitors of soluble epoxide hydrolase” (The Regents of the University of California, priority 2006, dated 2013):
pIC50: −log10 of the molar value. Like-named read-outs stand apart in the source and are kept apart here.

Assays:
human sEH = human sEH (Homo sapiens (Human), UniProt P34913); test: Inhibition of human soluble epoxide hydrolase (IC50; one of three substrate methods); format: biochemical;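 further: enzyme expressed in baculovirus and affinity-purified, assays run in triplicate, with substrate and read-out differing among the three methods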
human sEH, sequence (P34913 whole entry): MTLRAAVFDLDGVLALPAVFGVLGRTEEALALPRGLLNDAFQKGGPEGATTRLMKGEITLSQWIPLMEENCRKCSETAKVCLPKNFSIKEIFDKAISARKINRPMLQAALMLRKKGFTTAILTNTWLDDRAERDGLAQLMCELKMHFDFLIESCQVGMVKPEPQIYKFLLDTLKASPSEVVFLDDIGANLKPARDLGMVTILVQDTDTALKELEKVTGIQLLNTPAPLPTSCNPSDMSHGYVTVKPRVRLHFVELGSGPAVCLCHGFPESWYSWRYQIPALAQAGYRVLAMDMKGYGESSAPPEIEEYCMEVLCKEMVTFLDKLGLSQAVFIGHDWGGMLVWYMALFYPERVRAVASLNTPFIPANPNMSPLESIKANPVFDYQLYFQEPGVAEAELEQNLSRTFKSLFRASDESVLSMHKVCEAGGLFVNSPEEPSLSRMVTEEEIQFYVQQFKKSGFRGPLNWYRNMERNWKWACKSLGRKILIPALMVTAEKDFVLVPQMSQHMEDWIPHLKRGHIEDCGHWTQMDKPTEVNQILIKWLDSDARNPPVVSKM

[1] = Pharmacokinetic screening in dogs, oral administration, plasma LC-MS/MS; conditions: for LC/MS analysis, plasma level at time 0 / LC/MS analysis, plasma level at time 15 / LC/MS analysis, plasma level at time 30 / LC/MS analysis, plasma level at time 60 / LC/MS analysis, plasma level at time 120 / LC/MS analysis, plasma level at time 180 / LC/MS analysis, plasma level at time 240 / LC/MS analysis, plasma level at time 300 / LC/MS analysis, plasma level at time 360 / LC/MS analysis, plasma level at time 480 / LC/MS analysis, plasma level at time 1440: single oral dose (0.3 mg/kg per FIG. 1); for AUC: dog, plasma, po; for AUCINF_D_pred: dose-normalised
[2] = Solubility in oil of the dosing preparation (compound in Crisco); format: physicochemical; conditions: appearance in oil, in parentheses after compound number
Text: The dogs are fed immediately thereafter.

O=C(NC1CCN(C(=O)c2ccccc2)CC1)NC12CC3CC(CC(C3)C1)C2 [Compound 1159, N-(1-benzoylpiperidin-4-yl)-N′-(adamant-1-yl)urea]
pIC50 (human sEH; recombinant human sEH): 8.89 | LC/MS analysis, plasma level at time 0 ([1]; dogs, time 0 min): 0.00 | LC/MS analysis, plasma level at time 15 ([1]; dogs, time 15 min): 7.26 | LC/MS analysis, plasma level at time 30 ([1]; dogs, time 30 min): 7.82 | LC/MS analysis, plasma level at time 60 ([1]; dogs, time 60 min): 4.58 | LC/MS analysis, plasma level at time 120 ([1]; dogs, time 120 min): 1.39 | LC/MS analysis, plasma level at time 180 ([1]; dogs, time 180 min): 0.60 | LC/MS analysis, plasma level at time 240 ([1]; dogs, time 240 min): 0.00 | LC/MS analysis, plasma level at time 300 ([1]; dogs, time 300 min): 0.00 | LC/MS analysis, plasma level at time 360 ([1]; dogs, time 360 min): 0.00 | LC/MS analysis, plasma level at time 480 ([1]; dogs, time 480 min): 0.00 | LC/MS analysis, plasma level at time 1440 ([1]; dogs, time 1440 min): 0.00 | solubility in oil [2]: 1159 (Opaque)

COC(=O)c1ccc(C(=O)N2CCC(NC(=O)NC34CC5CC(CC(C5)C3)C4)CC2)cc1 [Compound 1204, 4-[4-(3-Adamantan-1-yl-ureido)-piperidine-1-carbonyl]-benzoic acid methyl ester]
pIC50 (human sEH; recombinant human sEH): 8.96 | LC/MS analysis, plasma level at time 0 ([1]; dogs, time 0 min): 0.00 | LC/MS analysis, plasma level at time 15 ([1]; dogs, time 15 min): 0.00 | LC/MS analysis, plasma level at time 30 ([1]; dogs, time 30 min): 0.19 | LC/MS analysis, plasma level at time 60 ([1]; dogs, time 60 min): 0.34 | LC/MS analysis, plasma level at time 120 ([1]; dogs, time 120 min): 0.11 | LC/MS analysis, plasma level at time 180 ([1]; dogs, time 180 min): 0.00 | LC/MS analysis, plasma level at time 240 ([1]; dogs, time 240 min): 0.00 | LC/MS analysis, plasma level at time 300 ([1]; dogs, time 300 min): 0.00 | LC/MS analysis, plasma level at time 360 ([1]; dogs, time 360 min): 0.00 | LC/MS analysis, plasma level at time 480 ([1]; dogs, time 480 min): 0.00 | LC/MS analysis, plasma level at time 1440 ([1]; dogs, time 1440 min): 0.00 | solubility in oil [2]: 1204 (Opaque)

CC(=O)N1CCC(NC(=O)NC23CC4CC(CC(C4)C2)C3)CC1 [Compound 1153, N-(1-acetylpiperidin-4-yl)-N′-(adamant-1-yl)urea]
AUC ([1]; 0.3 mg/kg): 0.597 µM·h | plasma level, in solution at 0.1 mg/kg dose, time 0 ([1]; dogs, oral, 0.1 mg/kg, time 0 min): 0.31 | plasma level, in solution at 0.1 mg/kg dose, time 15 ([1]; dogs, oral, 0.1 mg/kg, time 15 min): 5.33 | plasma level, in solution at 0.1 mg/kg dose, time 30 ([1]; dogs, oral, 0.1 mg/kg, time 30 min): 19.59 | plasma level, in solution at 0.1 mg/kg dose, time 60 ([1]; dogs, oral, 0.1 mg/kg, time 60 min): 56.74 | plasma level, in solution at 0.1 mg/kg dose, time 120 ([1]; dogs, oral, 0.1 mg/kg, time 120 min): 106.43 | plasma level, in solution at 0.1 mg/kg dose, time 180 ([1]; dogs, oral, 0.1 mg/kg, time 180 min): 100.94 | plasma level, in solution at 0.1 mg/kg dose, time 240 ([1]; dogs, oral, 0.1 mg/kg, time 240 min): 75.71 | plasma level, in solution at 0.1 mg/kg dose, time 300 ([1]; dogs, oral, 0.1 mg/kg, time 300 min): 44.51 | plasma level, in solution at 0.1 mg/kg dose, time 360 ([1]; dogs, oral, 0.1 mg/kg, time 360 min): 29.15 | plasma level, in solution at 0.1 mg/kg dose, time 480 ([1]; dogs, oral, 0.1 mg/kg, time 480 min): 13.01 | plasma level, in solution at 0.1 mg/kg dose, time 1440 ([1]; dogs, oral, 0.1 mg/kg, time 1440 min): 0.00 | plasma level, in solution at 0.3 mg/kg dose, time 0 ([1]; dogs, oral, 0.3 mg/kg, time 0 min): 0.00 | plasma level, in solution at 0.3 mg/kg dose, time 15 ([1]; dogs, oral, 0.3 mg/kg, time 15 min): 288.97 | plasma level, in solution at 0.3 mg/kg dose, time 30 ([1]; dogs, oral, 0.3 mg/kg, time 30 min): 276.16 | plasma level, in solution at 0.3 mg/kg dose, time 60 ([1]; dogs, oral, 0.3 mg/kg, time 60 min): 241.03 | plasma level, in solution at 0.3 mg/kg dose, time 120 ([1]; dogs, oral, 0.3 mg/kg, time 120 min): 107.19 | plasma level, in solution at 0.3 mg/kg dose, time 180 ([1]; dogs, oral, 0.3 mg/kg, time 180 min): 56.41 | plasma level, in solution at 0.3 mg/kg dose, time 240 ([1]; dogs, oral, 0.3 mg/kg, time 240 min): 26.42 | plasma level, in solution at 0.3 mg/kg dose, time 300 ([1]; dogs, oral, 0.3 mg/kg, time 300 min): 20.81 | plasma level, in solution at 0.3 mg/kg dose, time 360 ([1]; dogs, oral, 0.3 mg/kg, time 360 min): 10.10 | plasma level, in solution at 0.3 mg/kg dose, time 480 ([1]; dogs, oral, 0.3 mg/kg, time 480 min): 4.66 | plasma level, in solution at 0.3 mg/kg dose, time 1440 ([1]; dogs, oral, 0.3 mg/kg, time 1440 min): 0.00 | AUCINF_D_pred ([1]; dogs, oral): 119214 kg·nM·min/mg | LC/MS analysis, plasma level at time 0 ([1]; dogs, time 0 min): 0.00 | LC/MS analysis, plasma level at time 15 ([1]; dogs, time 15 min): 288.97 | LC/MS analysis, plasma level at time 30 ([1]; dogs, time 30 min): 276.16 | LC/MS analysis, plasma level at time 60 ([1]; dogs, time 60 min): 2411.03 | LC/MS analysis, plasma level at time 120 ([1]; dogs, time 120 min): 107.19 | LC/MS analysis, plasma level at time 180 ([1]; dogs, time 180 min): 56.41 | LC/MS analysis, plasma level at time 240 ([1]; dogs, time 240 min): 26.42 | LC/MS analysis, plasma level at time 300 ([1]; dogs, time 300 min): 20.81 | LC/MS analysis, plasma level at time 360 ([1]; dogs, time 360 min): 10.10 | LC/MS analysis, plasma level at time 480 ([1]; dogs, time 480 min): 4.66 | LC/MS analysis, plasma level at time 1440 ([1]; dogs, time 1440 min): 0.00 | solubility in oil [2]: 1153 (Opaque)

O=C(NC1CCN(C(=O)C(F)(F)F)CC1)NC12CC3CC(CC(C3)C1)C2 [Compound 1606]
AUC ([1]; 0.3 mg/kg): 0.0433 µM·h | AUCINF_D_pred ([1]; dogs, oral): 8553 kg·nM·min/mg | LC/MS analysis, plasma level at time 0 ([1]; dogs, time 0 min): 0.00 | LC/MS analysis, plasma level at time 15 ([1]; dogs, time 15 min): 0.00 | LC/MS analysis, plasma level at time 30 ([1]; dogs, time 30 min): 1.61 | LC/MS analysis, plasma level at time 60 ([1]; dogs, time 60 min): 4.82 | LC/MS analysis, plasma level at time 120 ([1]; dogs, time 120 min): 9.37 | LC/MS analysis, plasma level at time 180 ([1]; dogs, time 180 min): 10.98 | LC/MS analysis, plasma level at time 240 ([1]; dogs, time 240 min): 6.83 | LC/MS analysis, plasma level at time 300 ([1]; dogs, time 300 min): 5.62 | LC/MS analysis, plasma level at time 360 ([1]; dogs, time 360 min): 3.21 | LC/MS analysis, plasma level at time 480 ([1]; dogs, time 480 min): 1.47 | solubility in oil [2]: 1606 (Suspension)

CC(=O)N1CCC(NC(=O)Nc2ccc(OC(F)(F)F)cc2)CC1 [Compound 1555, 1-(1-Acetyl-piperidin-4-yl)-3-(4-trifluoromethoxy-phenyl)-urea]
AUC ([1]; 0.3 mg/kg): 6.5 µM·h | AUCINF_D_pred ([1]; dogs, oral): 13002825 kg·nM·min/mg | LC/MS analysis, plasma level at time 0 ([1]; dogs, time 0 min): 0.00 | LC/MS analysis, plasma level at time 15 ([1]; dogs, time 15 min): 16.07 | LC/MS analysis, plasma level at time 30 ([1]; dogs, time 30 min): 45.76 | LC/MS analysis, plasma level at time 60 ([1]; dogs, time 60 min): 100.35 | LC/MS analysis, plasma level at time 120 ([1]; dogs, time 120 min): 216.91 | LC/MS analysis, plasma level at time 180 ([1]; dogs, time 180 min): 260.79 | LC/MS analysis, plasma level at time 240 ([1]; dogs, time 240 min): 268.90 | LC/MS analysis, plasma level at time 300 ([1]; dogs, time 300 min): 302.64 | LC/MS analysis, plasma level at time 480 ([1]; dogs, time 480 min): 320.45 | LC/MS analysis, plasma level at time 1440 ([1]; dogs, time 1440 min): 266.29 | solubility in oil [2]: 1555 (Opaque)

CCC(=O)N1CCC(NC(=O)NC23CC4CC(CC(C4)C2)C3)CC1 [Compound 1163, N-(1-propionylpiperidin-4-yl)-N′-(adamant-1-yl)urea]
pIC50 (human sEH): 8.50 | AUC ([1]; 0.3 mg/kg): 0.0933 µM·h | AUCINF_D_pred ([1]; dogs, oral): 18504 kg·nM·min/mg | LC/MS analysis, plasma level at time 0 ([1]; dogs, time 0 min): 0.00 | LC/MS analysis, plasma level at time 15 ([1]; dogs, time 15 min): 5.70 | LC/MS analysis, plasma level at time 30 ([1]; dogs, time 30 min): 16.05 | LC/MS analysis, plasma level at time 60 ([1]; dogs, time 60 min): 31.79 | LC/MS analysis, plasma level at time 120 ([1]; dogs, time 120 min): 24.00 | LC/MS analysis, plasma level at time 180 ([1]; dogs, time 180 min): 14.55 | LC/MS analysis, plasma level at time 240 ([1]; dogs, time 240 min): 10.05 | LC/MS analysis, plasma level at time 300 ([1]; dogs, time 300 min): 7.20 | LC/MS analysis, plasma level at time 360 ([1]; dogs, time 360 min): 4.95 | LC/MS analysis, plasma level at time 480 ([1]; dogs, time 480 min): 1.50 | LC/MS analysis, plasma level at time 1440 ([1]; dogs, time 1440 min): 0.00 | solubility in oil [2]: 1163 (Opaque)
